How the values were obtained:
Format in all cases: biochemical
PDE1B = PDE1B (Homo sapiens, UniProt Q01064); test: In vitro HTRF PDE1 inhibition assay (PDE1B)
How it was run: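 PDE1A3, 1B or 1C with calmodulin hydrolysed 100 nM cGMP in Tris buffer pH 7.4 (1 mM CaCl2, 10 mM MgCl2, 0.1% BSA, 1% DMSO) for 45 min at 37 °C. Remaining cGMP was measured by HTRF competition (d2-cGMP, anti-cGMP cryptate; 665/615 nm). IC50 is reported in bins: <1, 1-10 and 10-100 μM.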

PDE1A3 = PDE1A3 (Homo sapiens, UniProt P54750); test: In vitro HTRF PDE1 inhibition assay (PDE1A3)
Excerpt: (§1) An exemplary procedure for the in vitro Homogenous Time Resolved Fluorescence assay, which can be used to determine the inhibitory action of compounds of the invention toward PDE1 or its isoforms, follows. The HTRF PDE1 assay utilized the HTRF (Homogenous Time Resolved Fluorescence) technology, which is based on the competition between unlabeled cyclic nucleotide and cyclic nucleotide labeled with XL665 for the binding to cyclic nucleotide-specific antibody labeled with cryptate. The HTRF signal is thus inversely proportional to the concentration of cyclic nucleotide being measured. Since phosphodiesterases break down cyclic nucleotides the HTRF signal was used to determine PDE activity. The Cisbio cGMP HTRF assay kit (Cat no: 62GM2PEC) was utilized. Cyclic GMP was diluted to 200 nM in HTRF assay buffer (1 mM CaCl2, 10 mM MgCl2, 10 mM Tris-HCl, 0.1% BSA, pH 7.4). 10 μl of compound or DMSO was diluted in 200 nM cyclic GMP solution and added to wells of a 96 well white plate to give 100 nM cyclic GMP in 1% DMSO final concentration. PDE (1A3, 1B or IC) was diluted to 2× working concentration in HTRF assay buffer with 2 μg/ml calmodulin, and 10 μl was added to initiate the reaction. The plate was then incubated for 45 minutes at 37° C. d2-Labelled cyclic GMP and anti-cGMP cryptate were diluted in 50 mM phosphate buffer, 0.8 M KF, 1% Triton X100, 0.2% BSA, pH 7.0. Following incubation 10 μl d2-cGMP, then 10 μl anti cGMP cryptate were added to each well and the plate was incubated for 45 minutes at room temperature. The plate was then read on Perkin Elmer Victor at 2 different FRET readings ex/emm 340 nm/665 nm and 340 nm/615 nm. Compounds having an IC50 of <1 μM, are denoted as +++. Compounds having an IC50 of 1−10 μM, are denoted as ++. Compounds having an IC50 of 10-100 μM, are denoted as +.

PDE1C = PDE1C (Homo sapiens, UniProt Q14123); test: In vitro HTRF PDE1 inhibition assay (PDE1C)
Excerpt: as §1

SMILES | IC50 (PDE1B; Table 22) | IC50 (PDE1A3; Table 23) | IC50 (PDE1C; Table 24) | IC50 (PDE1B; Table 25) | IC50 (PDE1A3; Table 26) | IC50 (PDE1C; Table 27)
CC(C)c1ncc2c(=O)n3c(nn12)N(CC1CCOCC1)CC3 [Example 1, 8-Isopropyl-1-((tetrahydro-2H-pyran-4-yl)methyl)-2,3-dihydrodiimidazo[2,1-c:1′,5′-f][1,2,4]triazin-5(1H)-one] | < 1000 nM | < 1000 nM | 1000 to 10000 nM | – | – | –
CC(C)c1ncc2c(=O)n3c(nn12)N(CCCc1ccccn1)CC3 [Example 11] | < 1000 nM | < 1000 nM | 1000 to 10000 nM | – | – | –
CC(C)CN1CCCn2c1nn1c(C(C)C)ncc1c2=O [Example 16] | < 1000 nM | < 1000 nM | < 1000 nM | – | – | –
CC(C)c1ncc2c(=O)n3c(nn12)N(CCC1CCOCC1)CCC3 [Example 24] | < 1000 nM | < 1000 nM | < 1000 nM | – | – | –
CC(C)c1ncc2c(=O)n3c(nn12)N(CC1CCOCC1)CCC3 [Example 25] | < 1000 nM | < 1000 nM | < 1000 nM | – | – | –
CC(C)(C)CCN1CCn2c1nn1c(C3CCOCC3)ncc1c2=O [Example 55] | < 1000 nM | < 1000 nM | < 1000 nM | – | – | –
O=c1c2cnc(C3CCOCC3)n2nc2n1CCN2CCCC(F)(F)F [Example 56] | < 1000 nM | 1000 to 10000 nM | 10000 to 100000 nM | – | – | –
O=c1c2cnc(C3CCOCC3)n2nc2n1CCCN2Cc1ccccc1 [Example 59] | < 1000 nM | < 1000 nM | 1000 to 10000 nM | – | – | –
CC1CN(CC2CCOCC2)c2nn3c(C(C)C)ncc3c(=O)n2C1 (stereo not drawn) [Example 64] | < 1000 nM | < 1000 nM | < 1000 nM | – | – | –
CN1c2nn3c(C4CCOCC4)ncc3c(=O)n2CCC1c1ccc(Cl)cc1 (stereo not drawn) [Example 69] | < 1000 nM | < 1000 nM | 1000 to 10000 nM | – | – | –
CCN1c2nn3c(C4CCOCC4)ncc3c(=O)n2CC[C@@H]1c1ccc(Cl)cc1 [Example 70] | < 1000 nM | < 1000 nM | 1000 to 10000 nM | – | – | –
CC(C)n1ncc2c(=O)n3c(nc21)N(Cc1ccc(-c2ccccn2)cc1)CC3 [Example 75] | < 1000 nM | < 1000 nM | < 1000 nM | – | – | –
CC(C)n1ncc2c(=O)n3c(nc21)N(CC1CCOCC1)CCC3 [Example 78] | < 1000 nM | < 1000 nM | 1000 to 10000 nM | – | – | –
CC(C)c1ncc2c(=O)n3c(nn12)N(CCCCCCO)CCC3 [Example 106] | < 1000 nM | < 1000 nM | < 1000 nM | – | – | –
O=c1c2cnc(C3CCCC3)n2nc2n1CCCC2 [Example 137] | < 1000 nM | 1000 to 10000 nM | 1000 to 10000 nM | – | – | –
O=c1c2cnc(C3CCOCC3)n2nc2n1CCN2CC1CCCCC1 [Example 153] | – | – | – | < 1000 nM | < 1000 nM | < 1000 nM
O=c1c2cnc(C3CCOCC3)n2nc2n1CCN2Cc1ccccc1F [Example 156] | – | – | – | < 1000 nM | < 1000 nM | < 1000 nM
O=c1c2cnc(C3CCOCC3)n2nc2n1CCN2CC1(C(F)(F)F)CC1 [Example 159] | – | – | – | < 1000 nM | < 1000 nM | < 1000 nM
O=c1c2cnc(C3CCOCC3)n2nc2n1CCN2CCC1(C(F)(F)F)CC1 [Example 160] | – | – | – | < 1000 nM | < 1000 nM | < 1000 nM
O=c1c2cnc(C3CCOCC3)n2nc2n1CCN2CC1CCC(F)(F)CC1 [Example 171] | – | – | – | < 1000 nM | < 1000 nM | < 1000 nM
CC(C)CCN1CCn2c1nn1c(C3CCOCC3)ncc1c2=O [Example 172] | – | – | – | < 1000 nM | < 1000 nM | < 1000 nM
CO[C@H]1CC[C@H](CN2CCCn3c2nn2c(C4CCOCC4)ncc2c3=O)CC1 [Example 191] | – | – | – | < 1000 nM | < 1000 nM | < 1000 nM
CCO[C@H]1CC[C@H](CN2CCCn3c2nn2c(C4CCOCC4)ncc2c3=O)CC1 [Example 193] | – | – | – | < 1000 nM | < 1000 nM | < 1000 nM
CC(C)c1ncc2c(=O)n3c(nn12)N(CC1CCOCC1)C[C@H](C)C3 [Example 233] | – | – | – | < 1000 nM | < 1000 nM | < 1000 nM

Further lines, results first:

IC50 (PDE1B; Table 22) | IC50 (PDE1A3; Table 23) | IC50 (PDE1C; Table 24) | IC50 (PDE1B; Table 25) | IC50 (PDE1A3; Table 26) | IC50 (PDE1C; Table 27) | SMILES
< 1000 nM | < 1000 nM | < 1000 nM | – | – | – | CC(C)c1ncc2c(=O)n3c(nn12)N(Cc1ccc(C#N)cc1)CCC3 [Example 30]
< 1000 nM | < 1000 nM | < 1000 nM | – | – | – | CC(C)n1ncc2c(=O)n3c(nc21)N(Cc1ccc(C#N)cc1)CCC3 [Example 79]
< 1000 nM | < 1000 nM | 1000 to 10000 nM | – | – | – | CC(C)n1ncc2c(=O)n3c(nc21)N(C)C(c1ccc(Cl)cc1)CC3 (stereo not drawn) [Example 81]
< 1000 nM | < 1000 nM | < 1000 nM | – | – | – | CC(C)c1ncc2c(=O)n3c(nn12)N(CCCc1ccccn1)CCC3 [Example 120, 9-Isopropyl-1-[3-(2-pyridinyl)propyl]-1,2,3,4-tetrahydro-6H-imidazo[5,1-f]pyrimido[2,1-c][1,2,4]triazin-6-one]
– | – | – | < 1000 nM | < 1000 nM | < 1000 nM | O=c1c2cnc(C3CCOCC3)n2nc2n1CCN2Cc1ccc(F)cc1 [Example 154]
– | – | – | < 1000 nM | < 1000 nM | < 1000 nM | O=c1c2cnc(C3CCOCC3)n2nc2n1CCN2Cc1cccc(F)c1 [Example 155]
– | – | – | < 1000 nM | < 1000 nM | < 1000 nM | O=c1c2cnc(C3CCOCC3)n2nc2n1CCCN2CC1(C(F)(F)F)CC1 [Example 187]
– | – | – | < 1000 nM | < 1000 nM | < 1000 nM | O=c1c2cnc(C3CCOCC3)n2nc2n1CCCN2CC1CCC(F)(F)CC1 [Example 190]
– | – | – | < 1000 nM | < 1000 nM | < 1000 nM | CC(C)c1ncc2c(=O)n3c(nn12)N(CC1CCOCC1)CC1(CC1)C3 [Example 200]
– | – | – | < 1000 nM | < 1000 nM | < 1000 nM | CC(C)c1ncc2c(=O)n3c(nn12)N(CC1CCOCC1)C[C@@H](C)C3 [Example 232]

From patent US20170273985A1, “TRICYCLIC DERIVATIVE” (Sunovion Pharmaceuticals Inc., priority 2014, published 2017)
